Measured values: US11739100B2, “2,3-dihydro-1h-imidazo{1,2-a}pyrimidin-5-one and this 1,2,3,4-tetrahydropyrimido{1,2-a}pyrimidin-6-one derivatives comprising a substituted morpholine, preparation thereof and pharmaceutical use thereof” (SANOFI, priority 2012, dated 2023)

Molecular target: T1, recombinant Vps34 (Homo sapiens, UniProt Q8NEB9)
T1 construct: purchased Invitrogen PV5126
Experiment: Phosphorylation of phosphatidylinositol (PI) by Vps34 in vitro, ADP detected by TR-FRET (HTRF Transcreener ADP)
Assay type: biochemical
Settings: 10 μM ATP, 55 μg/ml PI, approximately 3 nM Vps34, 1 hour at ambient temperature; absolute IC50, mean of two independent experiments; read-out: IC50 activity range

T1 sequence (Q8NEB9 whole entry): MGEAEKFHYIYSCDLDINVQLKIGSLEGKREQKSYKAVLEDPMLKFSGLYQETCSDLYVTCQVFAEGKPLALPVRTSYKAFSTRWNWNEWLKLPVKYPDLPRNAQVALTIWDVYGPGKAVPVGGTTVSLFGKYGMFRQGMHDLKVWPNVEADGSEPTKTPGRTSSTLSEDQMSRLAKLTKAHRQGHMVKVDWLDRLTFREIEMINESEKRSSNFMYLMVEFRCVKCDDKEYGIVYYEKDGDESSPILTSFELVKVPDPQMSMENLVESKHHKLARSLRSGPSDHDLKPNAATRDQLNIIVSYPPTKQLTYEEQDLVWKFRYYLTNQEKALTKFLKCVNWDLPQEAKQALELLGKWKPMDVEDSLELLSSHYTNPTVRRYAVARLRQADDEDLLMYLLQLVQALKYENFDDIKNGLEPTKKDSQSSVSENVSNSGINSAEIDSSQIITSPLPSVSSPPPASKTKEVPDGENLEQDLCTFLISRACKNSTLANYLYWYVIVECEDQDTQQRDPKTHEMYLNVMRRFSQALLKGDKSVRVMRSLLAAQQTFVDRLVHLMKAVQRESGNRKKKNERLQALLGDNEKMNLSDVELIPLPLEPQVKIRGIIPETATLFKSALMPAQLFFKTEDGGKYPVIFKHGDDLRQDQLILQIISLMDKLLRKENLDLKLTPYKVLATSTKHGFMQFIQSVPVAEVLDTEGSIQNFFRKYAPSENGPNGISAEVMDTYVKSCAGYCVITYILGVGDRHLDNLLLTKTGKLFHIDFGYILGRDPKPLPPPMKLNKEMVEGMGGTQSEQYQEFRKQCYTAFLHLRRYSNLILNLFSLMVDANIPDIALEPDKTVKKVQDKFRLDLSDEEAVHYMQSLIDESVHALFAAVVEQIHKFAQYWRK

Structure (SMILES) | IC50
CC1CN(c2cc(=O)n3c(n2)N(CC(=O)c2ccccn2)[C@H](C(F)(F)F)CC3)CCO1 (single isomer, unassigned) [Example 175] | > 100 nM
C[C@@H]1COCCN1c1nc2n(c(=O)c1F)CC[C@@H](C(F)(F)F)N2Cc1cocn1 [Example 44, (S)-3-Fluoro-2-((R)-3-methylmorpholin-4-yl)-9-oxazol-4-ylmethyl-8-trifluoromethyl-6,7,8,9-tetrahydro-pyrimido[1,2-a]-pyrimidin-4-one] | < 10 nM
Cc1nocc1CN1CC[C@H](C(F)(F)F)n2c1nc(N1CCOC[C@H]1C)c(F)c2=O [Example 146, (R)-3-Fluoro-9-(3-methylisoxazol-4-yl-methyl)-2-((R)-3-methylmorpholin-4-yl)-6-trifluoromethyl-6,7,8,9-tetrahydro-pyrimido[1,2-a]-pyrimidin-4-one] | < 10 nM
C[C@@H]1COCCN1c1cc(=O)n2c(n1)N(Cc1ccc(Cl)cn1)[C@H](C(F)(F)F)CC2 [Example 86, (S)-9-(5-Chloro-pyridin-2-ylmethyl)-2-((R)-3-methyl-morpholin-4-yl)-8-trifluoromethyl-6,7,8,9-tetrahydro-pyrimido[1,2-a]-pyrimidin-4-one] | < 10 nM
C[C@@H]1COCCN1c1cc(=O)n2c(n1)N(Cc1ccnc(F)c1)[C@H](C(F)(F)F)CC2 [Example 257, (S)-9-(2-Fluoropyridin-4-ylmethyl)-2-((R)-3-methylmorpholin-4-yl)-8-trifluoromethyl-6,7,8,9-tetrahydro-pyrimido[1,2-a]-pyrimidin-4-one] | < 10 nM
C[C@@H]1COCCN1c1cc(=O)n2c(n1)N(Cc1ccnnc1)[C@H](C(F)(F)F)CC2 [Example 259, (S)-2-((R)-3-methyl-morpholin-4-yl)-9-pyridazin-4-ylmethyl-8-trifluoromethyl-6,7,8,9-tetrahydro-pyrimido[1,2-a]-pyrimidin-4-one] | < 10 nM
C[C@@H]1COCCN1c1cc(=O)n2c(n1)N(CC(C)(C)O)[C@](C)(C(F)(F)F)CC2 [Example 200, (S)-9-(2-Hydroxy-2-methylpropyl)-8-methyl-2-((R)-3-methylmorpholin-4-yl)-8-trifluoromethyl-6,7,8,9-tetrahydro-pyrimido[1,2-a]-pyrimidin-4-one] | < 10 nM
C[C@@H]1COCCN1c1cc(=O)n2c(n1)N(CC(O)c1ccccn1)[C@H](C(F)(F)F)CC2 (stereo partly drawn) [Example 213, (S)-9-(2-Hydroxy-2-pyridin-2-ylethyl)-2-((R)-3-methyl-morpholin-4-yl)-8-trifluoromethyl-6,7,8,9-tetrahydro-pyrimido[1,2-a]-pyrimidin-4-one] | < 10 nM
C[C@@H]1COC[C@@H](C)N1c1cc(=O)n2c(n1)N(Cc1ccnn1C(F)F)[C@H](C(F)(F)F)CC2 [Example 154, (S)-9-(2-Difluoromethyl-2H-pyrazol-3-ylmethyl)-2-((3R,5R)-3,5-dimethyl-morpholin-4-yl)-8-trifluoromethyl-6,7,8,9-tetrahydro-pyrimido[1,2-a]-pyrimidin-4-one] | < 10 nM
C[C@@H]1COCCN1c1nc2n(c(=O)c1F)[C@@H](C(F)(F)F)CCN2Cc1ncco1 [Example 129, (R)-3-Fluoro-2-((R)-3-methylmorpholin-4-yl)-9-oxazol-2-ylmethyl-6-trifluoromethyl-6,7,8,9-tetrahydro-pyrimido[1,2-a]-pyrimidin-4-one] | < 10 nM
C[C@@H]1COCCN1c1cc(=O)n2c(n1)N(Cc1ccncc1Cl)[C@H](C(F)(F)F)CC2 [Example 66, (S)-9-(3-Chloro-pyridin-4-ylmethyl)-2-((R)-3-methyl-mopholin-4-yl)-8-trifluoromethyl-6,7,8,9-tetrahydro-pyrimido[1,2-a]-pyrimidin-4-one] | < 10 nM
CC(C)C(=O)CN1CC[C@H](C(F)(F)F)n2c1nc(N1CCOC[C@H]1C)c(F)c2=O [Example 128, (R)-3-Fluoro-2-((R)-3-methylmorpholin-4-yl)-9-(3-methyl-2-oxo-butyl)-6-trifluoromethyl-6,7,8,9-tetrahydro-pyrimido[1,2-a]-pyrimidin-4-one] | < 10 nM
C[C@@H]1COCCN1c1cc(=O)n2c(n1)N(Cc1ccnn1C(F)F)[C@H](C(F)(F)F)CC2 [Example 37, (S)-9-(2-Difluoromethyl-2H-pyrazol-3-ylmethyl)-2-((R)-3-methyl-morpholin-4-yl)-8-trifluoromethyl-6,7,8,9-tetrahydro-pyrimido[1,2-a]-pyrimidin-4-one] | < 10 nM
C[C@@H]1COCCN1c1nc2n(c(=O)c1F)CC[C@@H](C(F)(F)F)N2CC(C)(C)O [Example 49, (S)-3-Fluoro-9-(2-hydroxy-2-methyl-propyl)-2-((R)-3-methylmorpholin-4-yl)-8-trifluoromethyl-6,7,8,9-tetrahydro-pyrimido[1,2-a]-pyrimidin-4-one] | < 10 nM
C[C@@H]1COCCN1c1cc(=O)n2c(n1)N(Cc1ncco1)[C@](C)(C(F)(F)F)CC2 [Example 239, (S)-8-Methyl-2-((R)-3-methylmorpholin-4-yl)-9-oxazol-2-ylmethyl-8-trifluoromethyl-6,7,8,9-tetrahydro-pyrimido[1,2-a]-pyrimidin-4-one] | < 10 nM

More lines, now with the values ahead:

IC50 | Structure (SMILES)
< 10 nM | C[C@@H]1COCCN1c1cc(=O)n2c(n1)N(c1ccc(C3CCC3)nc1)[C@H](C(F)(F)F)CC2 [Example 88, (S)-9-(6-Cyclobutyl-pyridin-3-yl)-2-((R)-3-methylmorpholin-4-yl)-8-trifluoromethyl-6,7,8,9-tetrahydro-pyrimido[1,2-a]-pyrimidin-4-one]
< 10 nM | CCC(CC)C(=O)CN1c2nc(N3CCOC[C@H]3C)cc(=O)n2CC[C@H]1C(F)(F)F [Example 281, (S)-9-(3-Ethyl-2-oxo-pentyl)-2-((R)-3-methylmorpholin-4-yl)-8-trifluoromethyl-6,7,8,9-tetrahydro-pyrimido[1,2-a]-pyrimidin-4-one]
< 10 nM | C[C@@H]1COCCN1c1cc(=O)n2c(n1)N(Cc1ccccn1)[C@H](C(F)(F)F)CC2 [Example 218, (S)-2-((R)-3-Methyl-morpholin-4-yl)-9-pyridin-2-ylmethyl-8-trifluoromethyl-6,7,8,9-tetrahydro-pyrimido[1,2-a]-pyrimidin-4-one]
< 10 nM | Cc1nocc1CN1c2nc(N3CCOC[C@H]3C)cc(=O)n2CC[C@H]1C(F)(F)F [Example 12, (S)-9-(3-Methyl-isoxazol-4-ylmethyl)-2-((R)-3-methyl-morpholin-4-yl)-8-trifluoromethyl-6,7,8,9-tetrahydro-pyrimido[1,2-a]-pyrimidin-4-one]
< 10 nM | C[C@@H]1COCCN1c1cc(=O)n2c(n1)N(CC(=O)c1ccccn1)[C@](C)(C(F)(F)F)C2 [Example 179, (S)-2-Methyl-7-((R)-3-methylmorpholin-4-yl)-1-(2-oxo-2-pyridin-2-ylethyl)-2-trifluoromethyl-2,3-dihydro-1H-imidazo[1,2-a]-pyrimidin-5-one]
10 to 100 nM | C[C@@H]1COCCN1c1cc(=O)n2c(n1)N(Cc1ncco1)CC[C@@H]2C(F)(F)F [Example 13, (R)-2-((R)-3-Methyl-morpholin-4-yl)-9-oxazol-2-ylmethyl-6-trifluoromethyl-6,7,8,9-tetrahydro-pyrimido[1,2-a]-pyrimidin-4-one]
< 10 nM | C[C@@H]1COCCN1c1nc2n(c(=O)c1F)CC[C@@H](C(F)(F)F)N2Cc1noc(C2CC2)n1 [Example 247, (S)-9-(5-Cyclopropyl-[1,2,4]oxadiazol-3-yl-methyl)-3-fluoro-2-((R)-3-methyl-morpholin-4-yl)-8-trifluoromethyl-6,7,8,9-tetrahydro-pyrimido[1,2-a]-pyrimidin-4-one]
< 10 nM | COc1cc(C(=O)CN2c3nc(N4CCOC[C@H]4C)cc(=O)n3CC[C@H]2C(F)(F)F)ccn1 [Example 61, (S)-9-[2-(2-Methoxy-pyridin-4-yl)-2-oxo-ethyl]-2-((R)-3-methyl-morpholin-4-yl)-8-trifluoromethyl-6,7,8,9-tetrahydro-pyrimido[1,2-a]-pyrimidin-4-one]
< 10 nM | CC(C)C(=O)CN1c2nc(N3CCOC[C@H]3C)c(F)c(=O)n2CC[C@H]1C(F)(F)F [Example 4, (S)-3-Fluoro-2-((R)-3-methylmorpholin-4-yl)-9-(3-methyl-2-oxo-butyl)-8-trifluoromethyl-6,7,8,9-tetrahydro-pyrimido[1,2-a]-pyrimidin-4-one]
< 10 nM | C[C@@H]1COCCN1c1cc(=O)n2c(n1)N(CC(=O)Cc1ccccn1)[C@H](C(F)(F)F)CC2 [Example 67, (S)-2-((R)-3-Methyl-morpholin-4-yl)-9-(2-oxo-3-pyridin-2-yl-propyl)-8-trifluoromethyl-6,7,8,9-tetrahydro-pyrimido[1,2-a]-pyrimidin-4-one]
> 100 nM | Cc1nocc1C(=O)CN1c2nc(N3CCOC[C@H]3C)cc(=O)n2CC[C@H]1C(F)(F)F [Example 268, (S)-9-[2-(3-Methyl-isoxazol-4-yl)-2-oxo-ethyl]-2-((R)-3-methyl-morpholin-4-yl)-8-trifluoromethyl-6,7,8,9-tetrahydro-pyrimido[1,2-a]-pyrimidin-4-one]
< 10 nM | C[C@@H]1COCCN1c1cc(=O)n2c(n1)N(Cc1ccno1)[C@H](C(F)(F)F)CC2 [Example 36, (S)-9-Isoxazol-5-yl-methyl-2-((R)-3-methylmorpholin-4-yl)-8-trifluoromethyl-6,7,8,9-tetrahydro-pyrimido[1,2-a]-pyrimidin-4-one]
10 to 100 nM | C[C@@H]1COCCN1c1cc(=O)n2c(n1)N(Cc1ccon1)C(C)(C)CC2 [Example 298, 9-Isoxazol-3-ylmethyl-8,8-dimethyl-2-((R)-3-methylmorpholin-4-yl)-6,7,8,9-tetrahydro-pyrimido[1,2-a]-pyrimidin-4-one]
< 10 nM | C[C@@H]1COCCN1c1nc2n(c(=O)c1F)CC[C@@H](C(F)(F)F)N2CC(=O)C(C)(C)C [Example 97, (S)-9-(3,3-Dimethyl-2-oxobutyl)-3-fluoro-2-((R)-3-methyl-morpholin-4-yl)-8-trifluoromethyl-6,7,8,9-tetrahydro-pyrimido[1,2-a]-pyrimidin-4-one]
10 to 100 nM | C[C@@H]1COCCN1c1cc(=O)n2c(n1)N(Cc1ccncc1)[C@H](C(F)(F)F)CC2 [Example 216, (S)-2-((R)-3-Methyl-morpholin-4-yl)-9-pyridin-4-ylmethyl-8-trifluoromethyl-6,7,8,9-tetrahydro-pyrimido[1,2-a]-pyrimidin-4-one]
